Experiments:
FKBP = FKBP (Homo sapiens, UniProt P62942); assay: PPIase Inhibition Assay; format: biochemical; details: inhibition of PPIase activity of FKBP, substrate Succinyl-Ala-Phe-Pro-Phe-para-nitroanilide
Protocol: This assay follows in principle the procedure described in Kofron et al., 1991, Biochemistry 30:6127. The three main reagents used are PPIase, a substrate for PPIase, and a selected inhibitor compound of the present invention. The basic principle behind this assay is the conversion of the cis isomer of the substrate to the trans form, which conversion is catalyzed by PPIase. Essentially, inhibition of this PPIase activity is measured for the selected compounds. A peptide chymotrypsin substrate containing a proline in the P2 position is only cleaved by chymotrypsin when the Phe-Pro bond is in the trans isomeric configuration. In the presence of excess chymotrypsin, all of the trans peptide isomers are cleaved within approximately five seconds, leaving only cis forms.
The cis peptide will spontaneously convert to the trans isomer at a slow rate. The cis to trans conversion is catalyzed by isomerases at a much faster rate than this spontaneous conversion. Proteins with PPIase activity are examples of such isomerases. After isomerization, the peptide is cleaved by chymotrypsin releasing p-nitroaniline which can be monitored at 390 nm. The rate of release is then calculated using a first order rate plus offset equation utilizing the ENZFITTER program (Leatherbarrow, BIOSOFT, Cambridge, United Kingdom).
In a plastic cuvette are added 950 ul of ice cold assay buffer (25 mM HEPES, pH 7.8, 100 mM NaCl), 10 uL of FKBP (2.5 uM in 10 mM Tris-Cl pH 7.5, 100 mM NaCl, 1 mM dithiothreitol), 25 ul of chymotrypsin (50 mg/ml in 1 mM HCl) and 10 ul of the test compound at various concentrations in dimethyl sulphoxide. The reaction is initiated by addition of 5 ul of substrate (Succinyl-Ala-Phe-Pro-Phe-para-nitroanilide, 5 mg/ml in 235 mM LiCl in trifluoroethanol).
The absorbance at 390 nm versus time is monitored for 90 sec using a Beckman DU70 spectrophotometer. The absorbance versus time data files are transferred to an IBM XT computer and the rate constants determined using the commercial Enzfitter program. For each set of data, the uncatalyzed rate of conversion is measured and the uninhibited enzymatic rate determined. The data are expressed as % Inhibition and are calculated as follows: [formula] where kobs is the rate in the presence of a selected test compound, kuncat is the rate in the absence of enzyme, and kuninh is the rate in the presence of enzyme and absence of inhibitor. Data are plotted as percent inhibition versus concentration of inhibitor. The values of the concentration of inhibitor required for 50% inhibition of enzyme activity (IC50) were determined by nonlinear least squares regression analysis.

human T-cells = assay: Suppression of Human T-Cell Proliferation Assay (PHA-stimulated, [3H]-thymidine incorporation); format: cell-based; details: for IC50: inhibition of [3H]-thymidine incorporation of PHA-stimulated purified human T-cells, 72 hours
Text: Inhibition of mitogen-induced T-cell proliferation can be used to profile immunosuppressive activity of test compounds. In the description of the assay which follows, mitogen-induced T-cell proliferation was used to test the inhibitory potencies of select compounds of the present invention.
In an assay similar to that described by Bradley in Mishell et al. (Eds.), 1980, Selected Methods in Cellular Immunology, pp 156-161, W. H. Freeman & Co., San Fransisco, Calif., T-cells were stimulated by incubation with phytohemagglutinin (PHA) which binds to cell surface molecules, including the T-cell receptor. This stimulation results in proliferation which can be measured by incorporation of [^3 H]-thymidine into cellular DNA.
Fresh LeukoPaks were obtained from the New York Blood Center, New York, N.Y. The cells, including erythrocytes and leukocytes, were diluted with Hank's Balanced Salt Solution (HBSS) (GIBCO, Grand Island, N.Y.) and layered over Lymphoprep (Nycomed Pharma AS, Oslo, Norway) in sterile 50 ml conical centrifuge tubes. Lymphocytes were isolated at the Hank's/Nycomed interface after centrifugation at 2000×g, 4° C. for 15 min. The lymphocytes were washed with Minimal Essential Medium (GIBCO) containing 2% fetal bovine serum (FBS) (Sigma Chemical Co., St. Louis, Mo.), 1% HEPES buffer (GIBCO) and 1% Penicillin-Stretomycin solution (GIBCO).
T-cells were further purified essentially by sheep erythrocyte (SRBC) rosetting as described by Morimoto et al., 1983, J. Immunol. 130:157. The isolated lymphocytes were adjusted to 2×10^7 cells/ml and 5 ml aliquots of the cell suspension were incubated for 10 minutes at room temperature with 5 ml of a 5% SRBC (Cappel, Organon Technika Corp., West Chester, Pa.) suspension. The cells were gently pelleted by centrifugation at 300 rpm for 10 minutes, followed by a 1 hour incubation at room temperature to allow rosette formation. The cells were gently resuspended,layered over Lymphoprep and centrifuged for 30 minutes at 500×g. The pellet, containing rosetted T-cells and SRBC was treated with ice cold buffered ammonium chloride (GIBCO) to lyse the erythrocytes. T-cells were washed twice with HBSS.
Purified T-cells were resuspended at 2×10^6 cells/ml in complete culture medium composed of RPMI-1640 (Whittaker Bioproducts, Walkerville, Md.) with 10% FBS (Sigma), 2 mM L-glutamine (GIBCO), 1% Penicillin-Streptomycin (GIBCO) and 15 mM HEPES (GIBCO). In 96-well plates (Becton Dickinson, Lincoln Park, N.J.), 0.1 ml aliquots of T-cell suspension were mixed with 0.05 ml of 40 μg/ml PHA-M (Sigma). The compounds of this invention were dissolved in dimethylsulfoxide at 10 mM and various dilutions in complete medium were added in duplicate wells (0.05 ml/well). The plates were incubated at 37° C. in a humidified atmosphere of 5% carbon dioxide and 95% air for 72 hours.
Proliferation was assessed by measurement of [^3 H]-thymidine incorporation. During the last 6 hours of incubation, the cells were pulse labelled with 1 μCi/well of [^3 H]-thymidine (New England Nuclear, Boston, Mass.). The cells were harvested onto glass fiber paper using a plate harvester and the radioactivity incorporated into cellular DNA corresponding to individual wells was measured by standard liquid scintillation counting methods. The mean counts per minute (CPM) of replicate wells was calculated and linear regression analysis of mean CPM versus compound concentration was used to determine the concentration of compound which would inhibit [^3 H]-thymidine incorporation of T-cells by 50% (IC50).

FKBP, sequence (P62942 whole entry): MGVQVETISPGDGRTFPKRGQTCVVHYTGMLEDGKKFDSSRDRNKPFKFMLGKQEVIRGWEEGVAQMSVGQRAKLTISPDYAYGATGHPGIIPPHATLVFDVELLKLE

IC50 (FKBP)	Structure (SMILES)	IC50 (human T-cells)	inhibition of mitogen induced T-cell proliferation (human T-cells)
570 nM	CC[C@H](C)[C@H](NC(=O)[C@@H]1CCCN1C[C@H](CC(C)C)NC(=O)OC(C)(C)C)C(=O)NCc1ccccc1 [Example 2, 1-[1-[2-(S)-[[(1,1-Dimethylethoxy)carbonyl]amino]-4-methylpentyl]-L-proline]-L-isoleucine Benzylamide]	7 µM	–
5000 nM	CC[C@H](C)[C@H](NC(=O)[C@@H]1CCCCN1C[C@@H](NC(=O)OC(C)(C)C)[C@@H](C)CC)C(=O)NCc1ccccc1 [Example 3, 1-[1-[2-(S)-[[(1,1-Dimethylethoxy)carbonyl]amino]-3-(S)-methylpentyl]-L-homoproline]-L-isoleucine Benzylamide]	0.7 µM	–
130 nM	CCC(C)[C@@H](CN1CCC[C@H]1C(=O)N[C@H](C(=O)NCc1ccccc1)[C@@H](C)CC)NC(=O)[C@H](CC1CCCCC1)NC(=O)OC(C)(C)C (stereo partly drawn) [Example 7, 1-[1-[2-(S)-[[2-(S)-[[(1,1-Dimethylethoxy)carbonyl]amino]-1-oxo-3-cyclohexylpropyl]amino]-3-methylpentyl]-L-proline]-L-isoleucine Benzylamide]	3 µM	–
160 nM	CCC(C)[C@@H](CN1CCC[C@H]1C(=O)N[C@H](C(=O)NCc1ccccc1)[C@@H](C)CC)NC(=O)[C@@H](N)CC1CCCCC1 (stereo partly shown) [Example 8]	5 µM	–
< 50000 nM	CC[C@H](C)[C@H](NC(=O)[C@@H]1CCCN1C[C@H](CC(C)C)NC(=O)[C@H](CC(N)=O)NC(=O)[C@H](Cc1ccccc1)NC(=O)OC(C)(C)C)C(=O)OCc1ccccc1 [Example 14, 1-[1-[2-(S)-[[1-[1-[(1,1-Dimethylethoxy)carbonyl]-L-phenylalanyl]-L-asparaginyl]amino]-4-methylpentyl]-L-proline]-L-isoleucine Phenylmethyl Ester]	< 6 µM	inhibited mitogen induced T-cell proliferation
> 5000 nM	CC[C@H](C)[C@H](NC(=O)[C@@H]1CCCN1C[C@H](CC1CCCCC1)NC(=O)OC(C)(C)C)C(=O)NCc1ccccc1 [Example 16, 1-[1-[2-(S)-[[(1,1-dimethylethoxy)carbonyl]amino]-3-cyclohexylpropyl]-L-proline]-L-isoleucine Benzylamide]	6 µM	–
470 nM	CC[C@H](C)[C@H](NC(=O)[C@@H]1CCCN1C[C@@H](NC(=O)OC(C)(C)C)C(C)C)C(=O)NCc1ccccc1 [Example 17, 1-[1-[2-(S)-[[(1,1-dimethylethoxy)carbonyl]amino]-3-methylbutyl]-L-proline] -L-isoleucine Benzylamide]	14 µM	inhibited mitogen induced T-cell proliferation
1300 nM	CC[C@H](C)[C@H](NC(=O)[C@@H]1CCCCN1C[C@H](CC(C)C)NC(=O)OC(C)(C)C)C(=O)NCc1ccccc1 [Example 18, 1-[1-[2-(S)-[[(1,1-Dimethylethoxy)carbonyl]amino]-4-methylpentyl]-L-homoproline]-L-isoleucine Benzylamide]	4 µM	–
5000 nM	CC[C@H](C)[C@@H](CN1CCCC[C@H]1C(=O)N[C@H](C(=O)NCc1ccccc1)[C@@H](C)OCc1ccccc1)NC(=O)OC(C)(C)C [Example 19, 1-[1-[2-(S)-[[(1,1-Dimethylethoxy)carbonyl]amino]-3-(S)-methylpentyl]-L-homoproline]-L-threonene(O-Benzyl Ether)Benzylamide]	17 µM	–

Structure (SMILES)	IC50 (FKBP)	IC50 (human T-cells)	inhibition of mitogen induced T-cell proliferation (human T-cells)
CC[C@H](C)[C@H](NC(=O)[C@@H]1CCCN1C[C@@H](NC(=O)OC(C)(C)C)[C@@H](C)CC)C(=O)NCc1ccccc1 [Example 6]	390 nM	6 µM	–

Reference: patent US5385918A, “Aminomethylene-peptides as immunosuppressants” (Miles Inc., priority 1993, dated 1995)
